For assay [1], the system named is Rat2 fibroblasts stably transformed with a plasmid containing a CMV promotor controlled v-Src/Hu c-Src fusion gene. Briefly: Anchorage Independent Src-transformed Fibroblast Proliferation Assay.
The target in another assay is T1, c-Src (Homo sapiens, UniProt P12931).
T1 construct: purchased Upstate Biotechnologies
Briefly: c-Src Kinase Assay (ELISA format). The class given is biochemical. As to the method: Inhibitors of Src (partially purified preparation purchased from Upstate Biotechnologies) tyrosine kinase activity are analyzed in an ELISA format. […] Horseradish Peroxidase (HRP)-conjugated anti-phosphotyrosine is used to detect phosphorylated peptide via a color reaction. Conditions recommended by the manufacturer are employed.
Reaction conditions: Five microliter aliquots of each compound prepared fresh at the time of the assay are added as a solution in 10mM HEPES pH 7.5, 10% DMSO to the reaction well. Thirty-five microliters of reaction mix containing Src, buffer and peptide/bovine serum albumin mix are added to the compound wells and incubated at 30°C for 10 minutes (reaction buffer: 50mM TrisHCl pH 7.5, 10mM MgCl2, 0.1mM EGTA, 0.5mM Na3VO4). The reaction is started by addition of 10 microliters of ATP, incubated at 30°C for 1 hour, and stopped by addition of 20 microliters of 0.5M EDTA. The reaction mixture with the phosphorylated peptide is then transferred to a streptavidin-coated microtiter plate (provided in the kit) and allowed to bind for 20 minutes. Unbound peptide and reaction mixture is decanted and the plate is washed with PBS six times. HRP-conjugated phosphotyrosine antibody supplied in the kit is incubated with the plate for one hour, then decanted. The plate is again washed with PBS six times.
Activity is determined as % inhibition as calculated by the formula: (1 - Abs/Abs(max)) x 100 = % inhibition.
Background: An ELISA detects its analyte on a solid surface through an enzyme-linked reagent.

[2] abbreviates: Rattus norvegicus, Rat2, 120 h, read-out: anch-indep src-tx fib IC50, suspension growth, MTS on Day 5.
[3] abbreviates: read-out: anch-indep src-tx fib IC50, suspension growth, MTS on Day 5.
The mark [4] stands for this setting: Rattus norvegicus, Rat2, 120 h, read-out: anch-indep src-tx fib IC50.

Several values for one entry are separate records, joined by “and”; a condition that tells them apart may be missing. Equal values may be shown once. Read-outs that look alike come from different tables or passages of the source.

These results are taken from patent EP1268431B1 (Wyeth, priority 2000, dated 2001).

T1 sequence (P12931 whole entry, species assumed): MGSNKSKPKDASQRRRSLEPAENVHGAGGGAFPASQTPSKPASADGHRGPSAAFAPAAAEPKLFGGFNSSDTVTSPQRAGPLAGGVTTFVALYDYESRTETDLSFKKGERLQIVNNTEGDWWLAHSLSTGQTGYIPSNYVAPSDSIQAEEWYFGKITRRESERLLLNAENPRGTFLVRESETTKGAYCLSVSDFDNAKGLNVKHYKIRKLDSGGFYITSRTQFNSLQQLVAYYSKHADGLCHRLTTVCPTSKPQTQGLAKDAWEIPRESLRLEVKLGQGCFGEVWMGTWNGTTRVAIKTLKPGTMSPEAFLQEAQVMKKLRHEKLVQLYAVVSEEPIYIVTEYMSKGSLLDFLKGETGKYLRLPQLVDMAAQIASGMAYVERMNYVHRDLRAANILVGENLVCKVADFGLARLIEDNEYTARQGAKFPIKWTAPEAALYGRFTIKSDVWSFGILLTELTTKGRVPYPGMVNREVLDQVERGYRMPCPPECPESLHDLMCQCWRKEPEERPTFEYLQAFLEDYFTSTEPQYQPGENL

For `CCN1CCN(Cc2cc(-c3ccc4c(Nc5ccc(Cl)cc5Cl)c(C#N)cnc4c3)cs2)CC1` [Example 10, 4-(2,4-Dichloroanilino)-7-{5-[(4-ethyl-1-piperazinyl)methyl]-3-thienyl}-3-quinolinecarbonitrile], the IC50 in assay [1] (setting [2]) turned out to be 900 nM; against c-Src, 2.4 nM.

As for `CCN(CC)Cc1ccc(-c2ccc3c(Nc4cc(OC)c(Cl)cc4Cl)c(C#N)cnc3c2)cc1` [Example 87, 4-(2,4-Dichloro-5-methoxyanilino)-7-{4-[(diethylamino)methyl]phenyl}-3-quinolinecarbonitrile], the IC50 in assay [1] (setting [2]) stood at 220 nM; at c-Src it was 0.46 nM.

`COc1cc(Nc2c(C#N)cnc3cc(-c4cnc(C=O)n4C)c(OC)cc23)c(Cl)cc1Cl` [Example 228, 4-(2,4-dichloro-5-methoxyanilino)-7-(2-formyl-1-methyl-1H-imidazol-5-yl)-6-methoxy-3-quinolinecarbonitrile]: the IC50 in assay [1] (setting [2]) was above 10000 nM; against c-Src it was 46 nM.

Turning to `N#Cc1cnc2cc(C#CCCCN3CCOCC3)ccc2c1Nc1ccc(Cl)cc1Cl` [Example 11, 4-(2,4-Dichloroanilino)-7-[5-(4-morpholinyl)-1-pentynyl]-3-quinolinecarbonitrile], the IC50 in assay [1] (setting [2]) is above 10000 nM; on c-Src, 43 nM.

Consider `COc1cc(Nc2c(C#N)cnc3cc(-c4ccc(CN5CCOCC5)cc4)ccc23)c(Cl)cc1F` [Example 235, 4-(2-chloro-4-fluoro-5-methoxyanilino)-7-[4-(4-morpholinylmethyl)phenyl]-3-quinolinecarbonitrile], for which the IC50 in assay [1] (setting [2]) turned out to be 790 nM; at c-Src it was 4.1 nM.

For `COc1cc(Nc2c(C#N)cnc3cc(-c4ccc(CNCCS(=O)(=O)c5ccccc5)n4C)ccc23)c(Cl)cc1Cl` [Example 72, 4-(2,4-Dichloro-5-methoxyanilino)-7-[1-methyl-5-({[2-(phenylsulfonyl)ethyl]amino}methyl)-1H-pyrrol-2-yl]-3-quinolinecarbonitrile], the results for the concentration for half-maximal inhibition (IC50) (in assay [1] (setting [2]); on c-Src) were above 10000 nM and 78 nM, respectively.

Take `COc1cc(Nc2c(C#N)cnc3cc(C#Cc4ccccn4)ccc23)c(Cl)cc1Cl` [Example 91, 4-(2,4-Dichloro-5-methoxyanilino)-7-[2-(2-pyridinyl)ethynyl]-3-quinolinecarbonitrile]: the IC50 in assay [1] (setting [2]) was above 10000 nM; against c-Src, 3.1 nM.

Turning to `COc1ccc(-c2ccc3c(Nc4cc(OC)c(Cl)cc4Cl)c(C#N)cnc3c2)cc1` [Example 194, 4-(2,4-dichloro-5-methoxyanilino)-7-(4-methoxyphenyl)-3-quinolinecarbonitrile], the values for the half-maximal inhibitory concentration (IC50) (in assay [1] (setting [2]); at c-Src) were above 10000 nM and 12 nM, respectively.

Regarding `COc1cc(Nc2c(C#N)cnc3cc(-c4cccc5ccccc45)ccc23)c(Cl)cc1Cl` [Example 116, 4-(2,4-Dichloro-5-methoxyanilino)-7-(1-naphthyl)-3-quinolinecarbonitrile], the half-inhibitory concentration (IC50) in assay [1] (setting [2]) was above 10000 nM. For the same molecule, 10 µM produced 25% inhibition at c-Src.

Turning to `COc1cc(Nc2c(C#N)cnc3cc(-c4ccc(CN(C)C)cc4)ccc23)c(Cl)cc1Cl` [Example 86, 4-(2,4-Dichloro-5-methoxyanilino)-7-{4-[(dimethylamino)methyl]phenyl}-3-quinolinecarbonitrile], the IC50 is 210 nM in assay [1] (setting [2]) and 1.1 nM at c-Src.

In the case of `COc1cc(Nc2c(C#N)cnc3cc(-c4ccc(C(=O)O)cc4)ccc23)c(Cl)cc1Cl` [Example 121, 4-[3-Cyano-4-(2,4-dichloro-5-methoxyanilino)-7-quinolinyl]benzoic acid], the half-inhibitory concentration (IC50) in assay [1] (setting [2]) is above 10000 nM; on c-Src it was 4.8 nM and 1.8 nM.

Consider `COc1cc(Nc2c(C#N)cnc3cc(-c4ccc(CO)cc4)ccc23)c(Cl)cc1Cl` [Example 101, 4-(2,4-Dichloro-5-methoxyanilino)-7-[4-(hydroxymethyl)phenyl]-3-quinolinecarbonitrile], for which the figures for the IC50 (in assay [1] (setting [2]); on c-Src) were above 10000 nM and 15 nM, respectively.

On to `COc1cc(Nc2c(C#N)cnc3cc(C#CCN4CCOCC4)ccc23)c(Cl)cc1Cl` [Example 146, 4-(2,4-dichloro-5-methoxyanilino)-7-[3-(4-morpholinyl)-1-propynyl]-3-quinolinecarbonitrile], for which, in assay [1] (setting [2]), the IC50 was determined as 6500 nM.

`COc1cc(Nc2c(C#N)cnc3cc(-c4csc(CN5CCOCC5)c4)c(OC)cc23)c(Cl)cc1Cl` [Example 36, 4-(2,4-Dichloro-5-methoxyanilino)-6-methoxy-7-[5-(4-morpholinylmethyl)-3-thienyl]-3-quinolinecarbonitrile]: the results for the IC50 (in assay [1] (setting [2]); in assay [1] (setting [3]); against c-Src) were 160 nM, 200 nM and 1.9 nM, respectively.

Consider `COc1cc(Nc2c(C#N)cnc3cc(C#Cc4ccc(C)cc4)ccc23)c(Cl)cc1Cl` [Example 141, 4-(2,4-dichloro-5-methoxyanilino)-7-[2-(4-methylphenyl)ethynyl]-3-quinolinecarbonitrile], for which the IC50 in assay [1] (setting [2]) is above 10000 nM; on c-Src it was 750 nM.

Take `COc1cc(Nc2c(C#N)cnc3cc(-c4ccc(CNCCS(C)(=O)=O)o4)ccc23)c(Cl)cc1Cl` [Example 77, 4-(2,4-Dichloro-5-methoxyanilino)-7-[5-({[2-(methylsulfonyl)ethyl]amino}methyl)-2-furyl]-3-quinolinecarbonitrile]: the IC50 in assay [1] (setting [2]) worked out at 420 nM; on c-Src, 21 nM.

As for `COc1cc(Nc2c(C#N)cnc3cc(-c4ccc(C5OCCO5)s4)ccc23)c(Cl)cc1Cl` [Example 51, 4-(2,4-Dichloro-5-methoxyanilino)-7-[5-(1,3-dioxolan-2-yl)-2-thienyl]-3-quinolinecarbonitrile], the results for the IC50 (in assay [1] (setting [2]); at c-Src) were 420 nM and 8.2 nM, respectively.

With `COc1cc(Nc2c(C#N)cnc3cc(-c4ccc(CN5CCCC(C(=O)O)C5)cc4)ccc23)c(Cl)cc1Cl` (stereo not shown) [Example 149, 1-(4-{3-cyano-4-[(2,4-dichloro-5-methoxyphenyl)amino]-7-quinolinyl}benzyl)-3-piperidinecarboxylic acid], the IC50 in assay [1] (setting [2]) was determined as 2500 nM; against c-Src, 0.67 nM.

For the molecule `COc1cc(Nc2c(C#N)cnc3cc(-c4ccc(C5OCCO5)o4)ccc23)c(Cl)cc1Cl` [Example 5, 4-(2,4-Dichloro-5-methoxyanilino)-7-[5-(1,3-dioxolan-2-yl)-2-furyl]-3-quinolinecarbonitrile], the concentration for half-maximal inhibition (IC50) in assay [1] (setting [2]) came out at 200 nM; against c-Src it was 4.3 nM.

For the molecule `COc1cc(Nc2c(C#N)cnc3cc(-c4ccc(C=O)n4C)ccc23)c(Cl)cc1Cl` [Example 69, 4-(2,4-Dichloro-5-methoxyanilino)-7-(5-formyl-1-methyl-1H-pyrrol-2-yl)-3-quinolinecarbonitrile], the half-maximal inhibitory concentration (IC50) in assay [1] (setting [2]) is above 10000 nM; at c-Src it was 110 nM.

Turning to `N#Cc1cnc2cc(C=CCCCCN3CCOCC3)ccc2c1Nc1ccc(Cl)cc1Cl` (mixture of isomers) [Example 16, 4-(2,4-Dichloroanilino)-7-[(E/Z)-6-(4-morpholinyl)-1-hexenyl]-3-quinolinecarbonitrile], the IC50 in assay [1] (setting [2]) was above 10000 nM; at c-Src, 44 nM.

With “4-(2,4-dichloro-5-methoxyanilino)-7-{4-[(4-methyl-1-piperazinyl)]phenyl}-3-quinolinecarbonitrile [Example 218]”, the concentration for half-maximal inhibition (IC50) in assay [1] (setting [3]) was 600 nM.

Regarding `COc1cc(Nc2c(C#N)cnc3cc(-c4ccc(CCN5CCOCC5)cc4)ccc23)c(Cl)cc1Cl` [Example 27, 4-(2,4-Dichloro-5-methoxyanilino)-7-{4-[2-(4-morpholinyl)ethyl]phenyl}1-3-quinolinecarbonitrile], in assay [1] (setting [2]), the IC50 worked out at 1020 nM.

On to `COc1cc(Nc2c(C#N)cnc3cc(C#CCCl)ccc23)c(Cl)cc1Cl` [Example 152, 7-(3-chloro-1-propynyl)-4-[(2,4-dichloro-5-methoxyphenyl)amino]-3-quinolinecarbonitrile], for which the IC50 turned out to be 4800 nM in assay [1] (setting [2]) and 3800 nM in assay [1] (setting [3]).

Turning to `COc1cc(Nc2c(C#N)cnc3cc(-c4ccc(CN5CCSCC5)cc4)ccc23)c(Cl)cc1Cl` [Example 153, 4-[(2,4-dichloro-5-methoxyphenyl)amino]-7-[4-(4-thiomorpholinylmethyl)phenyl]-3-quinolinecarbonitrile], the IC50 in assay [1] (setting [2]) amounted to 2800 nM; in assay [1] (setting [3]) it was 2700 nM.

Regarding `COc1cc(Nc2c(C#N)cnc3cc(-c4ccc(CN5CCOCC5)cn4)ccc23)c(Cl)cc1Cl` [Example 57, 4-(2,4-Dichloro-5-methoxyanilino)-7-[5-(4-morpholinylmethyl)-2-pyridinyl]-3-quinolinecarbonitrile], in assay [1] (setting [4]), the IC50 was determined as 50 nM.

Take `COc1cc(Nc2c(C#N)cnc3cc(-c4ccc(CN5CCN(C)CC5)o4)ccc23)c(Cl)cc1Cl` [Example 41]: the IC50 in assay [1] (setting [4]) is 380 nM.

Take `N#Cc1cnc2cc(-c3csc(CN4CCOCC4)c3)ccc2c1Nc1ccc(Cl)cc1F` [Example 1, 4-(4-Chloro-2-fluoroanilino)-7-[5-(4-morpholinylmethyl)-3-thienyl]-3-quinolinecarbonitrile]: 25 nM corresponded to half-maximal inhibition against c-Src (IC50).

On to `COc1cc(Nc2c(C#N)cnc3cc(-c4cccc([N+](=O)[O-])c4)ccc23)c(Cl)cc1Cl` [Example 122, 4-(2,4-Dichloro-5-methoxyanilino)-7-(3-nitrophenyl)-3-guinolinecarbonitrile], for which the inhibition at 10 µM at c-Src came out at 44%.

For orientation: IC50 means the concentration needed to halve the response being measured. The term inhibition denotes how much of the control response was suppressed. The low end stands for a weak effect, the high end for a strong effect.
